Patent publication US20250082716A1, “REPRESSED ANG 1-7 IN COVID-19 IS INVERSELY ASSOCIATED WITH INFLAMMATION AND COAGULATION” (priority 2021, published 2025)
Where two headings read alike, the source gives them in different places.

Test system: SARS-CoV-2 South African variant
Format: in vivo, LVG Golden Syrian male hamsters

| Compound | daily body weights expressed as the percentage of starting body weight (hamster, in vivo) | daily body weights expressed as the percentage of starting body weight (pump implant delivering angiotensin 1-7 at 12 mg/kg/day, started the day after inoculation with 500,000 PFU, n=3) |
| --- | --- | --- |
| CCNC(=O)NS(=O)(=O)c1sc(CC(C)C)cc1-c1ccc(Cn2c(-c3ccccc3)nc(OC)c2C=O)cc1 [AVE0991, N-(Ethylcarbamoyl)-3-(4-((5-formyl-4-methoxy-2-phenyl-1H-imidazol-1-YL)methyl)phenyl)-5-isobutylthiophene-2-sulfonamide] | continued to gain weight through the entire course of infection |  |
| Asp-Arg-Val-Tyr-Ile-His-Pro (DRVYIHP; printed: Asp-Arg-Val-Tyr-Ile-His-Pro) [angiotensin 1-7] |  | continued to gain weight through the entire course of infection |
